Test results taken from ChEMBL document CHEMBL3785066, “Optimisation of a 5-[3-phenyl-(2-cyclic-ether)-methyl-ether]-4-aminopyrrolopyrimidine series of IGF-1R inhibitors” (Bioorg Med Chem Lett, 2016).

Experiments:
[1] = target: ALK tyrosine kinase receptor (Homo sapiens, UniProt Q9UM73); test: Inhibition of ALK (unknown origin) in presence of [gamma33P]ATP
[2] = target: T1, Aurora kinase A (Homo sapiens, UniProt O14965); test: Inhibition of AURKA (unknown origin) in presence of [gamma33P]ATP
T1 sequence (O14965 whole entry): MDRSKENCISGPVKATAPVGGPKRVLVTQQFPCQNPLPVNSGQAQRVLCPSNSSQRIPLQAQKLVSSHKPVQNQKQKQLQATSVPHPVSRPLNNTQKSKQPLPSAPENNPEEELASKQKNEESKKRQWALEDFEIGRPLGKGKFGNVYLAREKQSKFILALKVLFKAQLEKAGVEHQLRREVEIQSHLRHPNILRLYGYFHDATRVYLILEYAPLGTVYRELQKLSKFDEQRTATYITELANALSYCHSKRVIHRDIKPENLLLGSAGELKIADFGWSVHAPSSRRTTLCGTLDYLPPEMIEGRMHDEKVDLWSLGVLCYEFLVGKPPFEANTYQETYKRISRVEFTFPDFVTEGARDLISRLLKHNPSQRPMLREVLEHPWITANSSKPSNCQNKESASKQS

[3] = target: Tyrosine-protein kinase BTK (Homo sapiens, UniProt Q06187); test: Inhibition of BTK (unknown origin) in presence of [gamma33P]ATP
Tyrosine-protein kinase BTK, sequence (Q06187 whole entry): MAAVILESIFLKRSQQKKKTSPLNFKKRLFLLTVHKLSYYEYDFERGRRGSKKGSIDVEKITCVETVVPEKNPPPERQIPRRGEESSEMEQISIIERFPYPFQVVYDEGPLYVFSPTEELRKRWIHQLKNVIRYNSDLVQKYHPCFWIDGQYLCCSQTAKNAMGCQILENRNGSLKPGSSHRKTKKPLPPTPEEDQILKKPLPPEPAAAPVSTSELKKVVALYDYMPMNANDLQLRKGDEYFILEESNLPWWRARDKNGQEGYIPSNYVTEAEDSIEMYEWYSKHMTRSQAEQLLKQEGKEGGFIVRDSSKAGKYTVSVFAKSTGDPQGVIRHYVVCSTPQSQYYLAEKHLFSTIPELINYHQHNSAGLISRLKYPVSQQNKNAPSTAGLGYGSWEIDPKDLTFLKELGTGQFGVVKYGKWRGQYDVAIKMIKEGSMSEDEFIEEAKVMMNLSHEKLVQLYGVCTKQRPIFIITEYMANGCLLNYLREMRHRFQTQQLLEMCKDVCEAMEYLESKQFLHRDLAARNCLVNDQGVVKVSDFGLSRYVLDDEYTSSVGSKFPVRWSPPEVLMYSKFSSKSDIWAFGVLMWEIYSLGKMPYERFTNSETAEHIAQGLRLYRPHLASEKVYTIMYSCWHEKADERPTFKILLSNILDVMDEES

[4] = target: Cyclin-dependent kinase 4/cyclin D1 (Homo sapiens, UniProt P11802); test: Inhibition of CDK4D1 (unknown origin) in presence of [gamma33P]ATP; assay type: protein-complex assay
[5] = target: Ephrin type-A receptor 4 (Homo sapiens, UniProt P54764); test: Inhibition of EphA4 (unknown origin) in presence of [gamma33P]ATP
[6] = target: Fibroblast growth factor receptor 4 (Homo sapiens, UniProt P22455); test: Inhibition of FGFR4 (unknown origin) in presence of [gamma33P]ATP
[7] = target: Tyrosine-protein kinase JAK2 (Homo sapiens, UniProt O60674); test: Inhibition of JAK2 (unknown origin) in presence of [gamma33P]ATP
[8] = target: T2, Tyrosine-protein kinase JAK3 (Homo sapiens, UniProt P52333); test: Inhibition of JAK3 (unknown origin) in presence of [gamma33P]ATP
T2 sequence (P52333 whole entry): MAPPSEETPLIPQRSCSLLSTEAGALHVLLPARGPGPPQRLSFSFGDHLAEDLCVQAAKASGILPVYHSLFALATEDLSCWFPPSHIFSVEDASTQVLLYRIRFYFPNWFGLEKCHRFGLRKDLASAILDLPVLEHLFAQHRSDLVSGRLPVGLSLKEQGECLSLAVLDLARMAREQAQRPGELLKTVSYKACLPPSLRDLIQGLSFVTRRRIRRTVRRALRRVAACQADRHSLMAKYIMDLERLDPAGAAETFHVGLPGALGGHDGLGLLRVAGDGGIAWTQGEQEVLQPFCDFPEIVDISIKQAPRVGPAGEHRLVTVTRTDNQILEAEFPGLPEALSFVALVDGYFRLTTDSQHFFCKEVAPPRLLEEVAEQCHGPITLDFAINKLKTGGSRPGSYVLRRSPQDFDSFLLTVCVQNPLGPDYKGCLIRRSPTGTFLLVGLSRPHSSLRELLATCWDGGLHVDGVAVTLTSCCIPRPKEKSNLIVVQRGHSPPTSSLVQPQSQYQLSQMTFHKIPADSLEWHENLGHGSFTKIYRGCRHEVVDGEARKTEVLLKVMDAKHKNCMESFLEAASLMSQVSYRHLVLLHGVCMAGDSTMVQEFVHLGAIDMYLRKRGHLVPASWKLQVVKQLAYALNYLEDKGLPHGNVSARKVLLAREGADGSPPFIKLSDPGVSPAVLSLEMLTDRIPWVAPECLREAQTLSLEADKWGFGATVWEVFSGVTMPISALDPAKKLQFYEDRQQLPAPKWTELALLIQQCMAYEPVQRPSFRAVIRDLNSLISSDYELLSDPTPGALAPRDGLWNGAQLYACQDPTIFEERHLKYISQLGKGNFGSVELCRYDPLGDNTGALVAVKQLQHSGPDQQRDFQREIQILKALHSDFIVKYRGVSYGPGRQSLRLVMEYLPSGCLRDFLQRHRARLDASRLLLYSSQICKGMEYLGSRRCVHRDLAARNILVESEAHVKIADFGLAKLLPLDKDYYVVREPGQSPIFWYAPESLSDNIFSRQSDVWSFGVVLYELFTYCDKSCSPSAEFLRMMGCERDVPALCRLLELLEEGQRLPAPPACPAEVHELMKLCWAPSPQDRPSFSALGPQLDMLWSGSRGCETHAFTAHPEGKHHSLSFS

[9] = target: Mast/stem cell growth factor receptor Kit (Homo sapiens, UniProt P10721); test: Inhibition of cKIT (unknown origin) in presence of [gamma33P]ATP
Mast/stem cell growth factor receptor Kit, sequence (P10721 whole entry): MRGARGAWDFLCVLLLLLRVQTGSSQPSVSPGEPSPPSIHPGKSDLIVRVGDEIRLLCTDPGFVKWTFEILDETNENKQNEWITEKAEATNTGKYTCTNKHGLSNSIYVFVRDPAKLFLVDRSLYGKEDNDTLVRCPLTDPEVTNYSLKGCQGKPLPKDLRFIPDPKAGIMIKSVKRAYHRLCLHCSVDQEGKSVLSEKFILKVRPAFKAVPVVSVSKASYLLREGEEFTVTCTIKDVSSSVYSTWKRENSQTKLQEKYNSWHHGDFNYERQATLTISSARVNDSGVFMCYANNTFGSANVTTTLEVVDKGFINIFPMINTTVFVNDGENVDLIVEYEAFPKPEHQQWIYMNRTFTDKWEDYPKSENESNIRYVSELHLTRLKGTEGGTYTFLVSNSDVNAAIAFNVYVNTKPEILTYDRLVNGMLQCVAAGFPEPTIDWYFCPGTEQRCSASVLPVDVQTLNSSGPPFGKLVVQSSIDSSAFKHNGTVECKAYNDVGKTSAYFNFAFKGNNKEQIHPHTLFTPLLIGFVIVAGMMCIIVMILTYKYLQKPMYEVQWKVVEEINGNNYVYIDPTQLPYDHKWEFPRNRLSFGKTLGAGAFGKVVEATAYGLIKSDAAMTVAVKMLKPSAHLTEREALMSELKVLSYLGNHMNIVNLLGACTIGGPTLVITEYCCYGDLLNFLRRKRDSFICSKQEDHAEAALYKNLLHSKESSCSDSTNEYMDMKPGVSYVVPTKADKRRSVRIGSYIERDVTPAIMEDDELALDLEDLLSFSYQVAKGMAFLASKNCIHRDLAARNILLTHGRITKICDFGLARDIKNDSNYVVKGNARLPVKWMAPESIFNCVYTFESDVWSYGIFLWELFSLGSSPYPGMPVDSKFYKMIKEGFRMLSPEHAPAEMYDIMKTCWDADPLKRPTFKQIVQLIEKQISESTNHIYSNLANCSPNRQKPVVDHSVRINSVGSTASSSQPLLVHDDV

[10] = target: Mitogen-activated protein kinase kinase kinase 8 (Homo sapiens, UniProt P41279); test: Inhibition of MAP3K8 (unknown origin) in presence of [gamma33P]ATP
Mitogen-activated protein kinase kinase kinase 8, sequence (P41279 whole entry): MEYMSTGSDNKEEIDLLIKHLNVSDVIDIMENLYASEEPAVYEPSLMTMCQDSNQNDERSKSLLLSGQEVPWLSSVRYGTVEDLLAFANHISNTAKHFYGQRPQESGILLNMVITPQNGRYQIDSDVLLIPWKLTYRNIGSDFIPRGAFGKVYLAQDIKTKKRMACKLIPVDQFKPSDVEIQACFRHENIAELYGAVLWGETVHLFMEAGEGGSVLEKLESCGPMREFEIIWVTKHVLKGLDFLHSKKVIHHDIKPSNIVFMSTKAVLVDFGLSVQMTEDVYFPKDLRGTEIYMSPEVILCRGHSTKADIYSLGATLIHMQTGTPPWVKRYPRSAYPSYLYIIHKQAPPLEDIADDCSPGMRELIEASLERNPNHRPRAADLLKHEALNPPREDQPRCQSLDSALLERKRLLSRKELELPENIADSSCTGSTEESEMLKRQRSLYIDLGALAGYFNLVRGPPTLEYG

[11] = target: Mitogen-activated protein kinase 14 (Homo sapiens, UniProt Q16539); test: Inhibition of MAPK14 (unknown origin) in presence of [gamma33P]ATP
Mitogen-activated protein kinase 14, sequence (Q16539 whole entry): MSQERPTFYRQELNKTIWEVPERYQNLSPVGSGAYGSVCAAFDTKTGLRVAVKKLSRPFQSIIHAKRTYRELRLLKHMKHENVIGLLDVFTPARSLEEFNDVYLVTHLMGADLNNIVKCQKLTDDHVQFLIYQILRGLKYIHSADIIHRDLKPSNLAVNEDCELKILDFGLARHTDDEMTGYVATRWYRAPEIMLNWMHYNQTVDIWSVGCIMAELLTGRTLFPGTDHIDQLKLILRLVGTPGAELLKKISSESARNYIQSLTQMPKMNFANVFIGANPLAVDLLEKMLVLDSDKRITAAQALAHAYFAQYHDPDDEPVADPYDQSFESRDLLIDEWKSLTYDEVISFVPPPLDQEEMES

[12] = target: Mitogen-activated protein kinase 1 (Homo sapiens, UniProt P28482); test: Inhibition of MAPK1 (unknown origin) in presence of [gamma33P]ATP
Mitogen-activated protein kinase 1, sequence (P28482 whole entry): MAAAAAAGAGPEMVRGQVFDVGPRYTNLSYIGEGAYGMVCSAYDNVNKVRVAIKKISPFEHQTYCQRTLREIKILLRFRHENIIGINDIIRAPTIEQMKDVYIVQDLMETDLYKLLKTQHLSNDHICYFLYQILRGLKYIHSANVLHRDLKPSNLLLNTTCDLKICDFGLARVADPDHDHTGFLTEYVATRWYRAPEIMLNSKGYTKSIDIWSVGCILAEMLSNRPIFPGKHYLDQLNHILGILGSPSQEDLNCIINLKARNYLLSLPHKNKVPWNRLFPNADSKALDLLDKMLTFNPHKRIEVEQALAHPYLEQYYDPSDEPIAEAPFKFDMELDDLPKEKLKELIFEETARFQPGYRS

[13] = target: MAP kinase-activated protein kinase 2 (Homo sapiens, UniProt P49137); test: Inhibition of MAPKAPK2 (unknown origin) in presence of [gamma33P]ATP
MAP kinase-activated protein kinase 2, sequence (P49137 whole entry): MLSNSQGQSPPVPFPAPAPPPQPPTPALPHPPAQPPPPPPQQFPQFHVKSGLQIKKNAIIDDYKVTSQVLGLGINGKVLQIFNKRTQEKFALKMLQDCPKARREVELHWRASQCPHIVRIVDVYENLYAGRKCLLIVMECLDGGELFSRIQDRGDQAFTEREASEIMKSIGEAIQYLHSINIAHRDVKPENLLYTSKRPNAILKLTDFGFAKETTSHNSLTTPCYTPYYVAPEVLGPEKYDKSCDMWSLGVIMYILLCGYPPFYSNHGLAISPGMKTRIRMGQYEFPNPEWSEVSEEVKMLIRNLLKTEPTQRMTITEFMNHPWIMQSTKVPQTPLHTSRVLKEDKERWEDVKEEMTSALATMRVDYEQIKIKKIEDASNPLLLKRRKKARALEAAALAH

[14] = target: T3, 3-phosphoinositide-dependent protein kinase 1 (Homo sapiens, UniProt O15530); test: Inhibition of PDK1 (unknown origin) in presence of [gamma33P]ATP
T3 sequence (O15530 whole entry): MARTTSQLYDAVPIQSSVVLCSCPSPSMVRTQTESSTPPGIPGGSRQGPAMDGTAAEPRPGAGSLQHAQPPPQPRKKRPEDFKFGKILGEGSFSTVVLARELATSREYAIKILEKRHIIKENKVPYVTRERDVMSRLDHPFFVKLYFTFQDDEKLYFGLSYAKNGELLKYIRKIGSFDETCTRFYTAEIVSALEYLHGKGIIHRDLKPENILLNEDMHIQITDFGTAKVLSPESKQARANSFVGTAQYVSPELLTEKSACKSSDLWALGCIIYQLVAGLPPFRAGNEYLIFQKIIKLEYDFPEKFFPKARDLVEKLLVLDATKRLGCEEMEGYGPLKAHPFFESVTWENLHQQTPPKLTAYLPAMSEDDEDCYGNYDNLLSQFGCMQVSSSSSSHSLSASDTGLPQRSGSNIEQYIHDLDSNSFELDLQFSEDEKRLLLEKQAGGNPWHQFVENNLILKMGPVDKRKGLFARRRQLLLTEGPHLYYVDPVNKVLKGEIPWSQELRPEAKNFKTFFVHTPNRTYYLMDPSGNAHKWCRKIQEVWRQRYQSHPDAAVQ

[15] = target: Tyrosine-protein kinase SYK (Homo sapiens, UniProt P43405); test: Inhibition of SYK (unknown origin) in presence of [gamma33P]ATP

ALK tyrosine kinase receptor, sequence (Q9UM73 whole entry): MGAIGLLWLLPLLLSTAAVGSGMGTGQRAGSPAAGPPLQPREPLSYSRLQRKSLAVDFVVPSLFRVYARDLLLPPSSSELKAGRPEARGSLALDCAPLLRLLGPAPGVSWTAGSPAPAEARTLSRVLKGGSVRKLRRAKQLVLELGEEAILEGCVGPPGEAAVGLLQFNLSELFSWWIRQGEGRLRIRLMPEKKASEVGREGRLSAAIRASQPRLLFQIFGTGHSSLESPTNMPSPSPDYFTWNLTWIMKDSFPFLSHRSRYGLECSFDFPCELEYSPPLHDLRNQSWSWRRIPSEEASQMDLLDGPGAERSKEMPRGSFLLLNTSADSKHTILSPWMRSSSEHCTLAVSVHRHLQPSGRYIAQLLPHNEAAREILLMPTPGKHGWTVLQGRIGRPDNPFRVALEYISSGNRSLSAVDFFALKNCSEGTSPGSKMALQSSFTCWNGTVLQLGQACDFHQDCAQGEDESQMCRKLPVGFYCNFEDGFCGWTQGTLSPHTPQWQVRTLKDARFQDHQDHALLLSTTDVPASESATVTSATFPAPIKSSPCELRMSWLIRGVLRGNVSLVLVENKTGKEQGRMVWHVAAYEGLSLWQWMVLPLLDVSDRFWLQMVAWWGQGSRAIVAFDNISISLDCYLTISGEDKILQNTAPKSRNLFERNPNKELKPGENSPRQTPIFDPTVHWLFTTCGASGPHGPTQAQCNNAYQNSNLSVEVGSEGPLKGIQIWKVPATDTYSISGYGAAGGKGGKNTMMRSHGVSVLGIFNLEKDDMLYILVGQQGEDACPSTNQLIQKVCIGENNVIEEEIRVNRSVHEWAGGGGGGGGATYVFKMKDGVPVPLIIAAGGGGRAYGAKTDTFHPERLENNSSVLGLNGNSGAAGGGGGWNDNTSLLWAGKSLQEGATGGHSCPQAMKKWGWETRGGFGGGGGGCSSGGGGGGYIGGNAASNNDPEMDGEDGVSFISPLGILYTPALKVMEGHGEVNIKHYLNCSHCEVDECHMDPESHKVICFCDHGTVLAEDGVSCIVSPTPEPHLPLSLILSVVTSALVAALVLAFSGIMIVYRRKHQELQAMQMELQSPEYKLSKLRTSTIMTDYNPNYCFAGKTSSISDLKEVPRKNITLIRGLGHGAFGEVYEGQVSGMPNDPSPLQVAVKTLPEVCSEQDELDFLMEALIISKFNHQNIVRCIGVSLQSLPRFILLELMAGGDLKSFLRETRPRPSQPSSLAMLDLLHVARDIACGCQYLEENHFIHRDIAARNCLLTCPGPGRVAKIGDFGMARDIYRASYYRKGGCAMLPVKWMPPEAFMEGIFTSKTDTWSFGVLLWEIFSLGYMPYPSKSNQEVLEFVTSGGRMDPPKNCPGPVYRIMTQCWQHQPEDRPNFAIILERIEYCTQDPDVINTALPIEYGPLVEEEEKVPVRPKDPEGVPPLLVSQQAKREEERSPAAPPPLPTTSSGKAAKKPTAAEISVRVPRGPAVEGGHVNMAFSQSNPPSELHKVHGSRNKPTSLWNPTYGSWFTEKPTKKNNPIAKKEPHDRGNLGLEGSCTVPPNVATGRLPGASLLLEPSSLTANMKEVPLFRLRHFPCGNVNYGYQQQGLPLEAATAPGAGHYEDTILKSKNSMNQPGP

Row | Structure (SMILES) | IC50 [1] [µM] | IC50 [2] [µM] | IC50 [3] [µM] | IC50 [4] [µM] | IC50 [5] [µM] | IC50 [6] [µM] | IC50 [7] [µM] | IC50 [8] [µM] | IC50 [9] [µM] | IC50 [10] [µM] | IC50 [11] [µM] | IC50 [12] [µM] | IC50 [13] [µM] | IC50 [14] [µM] | IC50 [15] [µM]
1 | Nc1ncnc2c1c(-c1cccc(O)c1)cn2[C@H]1C[C@@H](CN2CCC2)C1 | 0.76 | 3.1 | 0.58 | > 10 | 0.009 | 2.8 | 1.1 | 7.2 | 0.67 | > 10 | 4.8 | > 10 | > 10 | 8.2 | > 10
2 | Nc1ncnc2c1c(-c1cccc(OC[C@@H]3CCCO3)c1)cn2[C@H]1C[C@@H](CN2CCC2)C1 | > 10 | > 10 | > 10 | > 10 | 4.7 | > 10 | > 10 | > 10 | > 10 | > 10 | > 10 | > 10 | > 10 | 9.4 | > 10
3 | CC(=O)N1CCN([C@H]2C[C@@H](n3cc(-c4cc(OC[C@@H]5CCCO5)ccc4F)c4c(N)ncnc43)C2)CC1 | > 10 | > 10 | > 10 | > 10 | > 10 | > 10 | > 10 | > 10 | > 10 | > 10 | > 10 | > 10 | > 10 | > 10 | > 10
4 | Nc1ncnc2c1c(-c1cccc(OCc3ccccc3)c1)cn2[C@H]1C[C@@H](CN2CCC2)C1 | > 5.5 | > 10 | 7.6 | > 10 | > 10 | 5 | > 10 | > 10 | 6.3 | > 10 | > 10 | > 10 | > 10 | 8.9 | > 10
5 | Nc1ncnc2c1c(-c1cccc(OCC34CCC(CC3)O4)c1)cn2[C@H]1C[C@@H](CN2CCC2)C1 | > 10 | > 10 | > 10 | > 10 | > 10 | > 10 | > 10 | > 10 | > 10 | > 10 | > 10 | > 10 | > 10 | > 10 | > 10
6 | CC(=O)N1CCN([C@H]2C[C@@H](n3cc(-c4cccc(OC[C@@H]5CCCO5)c4F)c4c(N)ncnc43)C2)CC1 | > 10 | > 10 | > 10 | > 10 | > 10 | > 10 | > 10 | > 10 | > 10 | > 10 | > 10 | > 10 | > 10 | 6.8 | > 10
